Results reported in publication PMC11831190 (MedComm, 2025).
Where two headings read alike, the source gives them in different places.

Assay: Pharmacokinetic evaluation of Oraxol in patients with MBC (weeks 1 and 4)
Format: in vivo, human
Details: for AUC(0-t) / Cmax / Tmax: human, in vivo, oral; for AUC(0-t): read-out: AUC (0-52) Mean
Description: Similarly, patients were readmitted to the clinic the preceding night dosing on week 4, day 1, and remained at the clinic until pharmacokinetic sampling was completed on Day 3 of that week.
Analytical determination of pharmacokinetic parameters was conducted in patients who provided at least one post‐dose blood sample. The study weeks were counted consecutively starting from week 1 for pharmacokinetic sampling. However, for week 4 pharmacokinetic sampling, a delay was permitted at the investigator's discretion to allow the relevant time to recuperate from any intolerable toxicity, if present. In the instance of treatment postponement, pharmacokinetic samples for week 4 were collected immediately after treatment resumed, regardless of whether a dose reduction were applied.
The pharmacokinetic parameters were synthesized utilizing descriptive data analysis, including mean, standard deviation, median, minimum, and maximum values. What is more, summaries of pharmacokinetic parameters included the geometric average and the coefficient of variation. Individual concentration data and corresponding area under the AUC timepoint data were tabulated in both nominal and actual sampling times for all patients. The concentration‐timepoint data (in actual times) were presented graphically for each subject.
The pharmacokinetic parameters were analyzed using logarithmic transformation, followed by statistical evaluation through analysis of variance, considering subject and treatment effects. […] This analysis allowed for the assessment of the pharmacokinetic profile of Oraxol over the course of treatment.

SMILES	Tmax (0-24) Median (Study day 1) [h]	Tmax (0-24) Median (Study day 22) [h]	AUC(0-t) (Study day 1) [ng·h/mL]	Cmax (Study day 1, read-out: Cmax (0-24) Mean) [ng/mL]	Cmax (Study day 1, read-out: Cmax (24-48) Mean) [ng/mL]	Cmax (Study day 1, read-out: Cmax (48-52) Mean) [ng/mL]	Cmax (Study day 1, read-out: Cmax Mean) [ng/mL]	Tmax (Study day 1, read-out: Tmax (24-48) Median) [h]	Tmax (Study day 1, read-out: Tmax (48-52) Median) [h]	AUC(0-t) (Study day 22) [ng·h/mL]	Cmax (Study day 22, read-out: Cmax (0-24) Mean) [ng/mL]	Cmax (Study day 22, read-out: Cmax (24-48) Mean) [ng/mL]	Cmax (Study day 22, read-out: Cmax (48-52) Mean) [ng/mL]	Cmax (Study day 22, read-out: Cmax Mean) [ng/mL]	Tmax (Study day 22, read-out: Tmax (24-48) Median) [h]	Tmax (Study day 22, read-out: Tmax (48-52) Median) [h]
COc1cc2c(cc1OC)CN(CCc1ccc(-n3nnc(-c4cc(OC)c(OC)cc4NC(=O)c4cc(=O)c5ccccc5o4)n3)cc1)CC2.CS(=O)(=O)O.O [HM30181A, HM30181A methanesulfonate monohydrate]	5	4.5														
CC(=O)O[C@H]1C(=O)[C@@]2(C)[C@H]([C@H](OC(=O)c3ccccc3)[C@]3(O)C[C@H](OC(=O)[C@H](O)[C@@H](NC(=O)c4ccccc4)c4ccccc4)C(C)=C1C3(C)C)[C@]1(OC(C)=O)CO[C@@H]1C[C@@H]2O [Paclitaxel]	1	1	3540	288	338	324	404	25.5	49.3	3520	329	289	313	398	25	49
